Assay results reported in patent publication US20250108036A1, “COMPOSITIONS FOR REMOVING SENESCENT CELLS AND USES THEREOF” (LIFECEUTIX CO., LTD., priority 2021, published 2025).

Legend:
[1] = skin aging (dermal thickness, collagen mRNA) in naturally aged mice (Example 7-9); type: in vivo, C57BL6J mice
Description: After 22-month-old female C57BL6J mice (purchased from KRIBB Laboratory Animal Resource Center) were adapted to the experimental environment for one week, the aged mice were randomized into an experimental group and a control group. 8-week-old mice that were not aged were used as controls. LX-112 was mixed with 0.5% CMC-Na solution (purchased from Sigma) and administered orally at a concentration of 70 mg/kg daily for 21 days. The control group was administered only the solution in the same volume. After drug administration was completed, the method described in each Example below was performed.
Frozen sections of skin tissue were stained with H/E (Hematoxylin/Eosin), and the thickness of the dermis was observed under an optical microscope. Additionally, the mRNA amount of collagen (COL1A1) was measured by qRT-PCR as described in Example 7-2.

p16, p21 = assay: p16 and p21 mRNA qRT-PCR in doxorubicin-aged mice (Example 8-2); type: in vivo, C57BL6J mice; conditions: doxorubicin-aged mice, LX-112 70 mg/kg oral daily 21 days; DOX without LX = 100%
Description: After adapting 8-week-old male C57BL6J mice (purchased from KRIBB Laboratory Animal Resource Center) to the experimental environment for 1 week, doxorubicin, an anticancer drug, was administered intraperitoneally at a concentration of 10 mg/kg, and mice that were induced to age for more than 10 days were assigned to an experimental group and a control group. LX-112 was mixed with 0.5% CMC-Na solution (purchased from Sigma) and administered orally at a concentration of 70 mg/kg daily for 21 days. The control group was administered only the solution in the same volume. After drug administration was completed, the method described in each Example below was performed.
The mouse was sacrificed in the same manner as in Example 7-2, RNA was extracted from the organ tissue of each region, and qRT-PCR was performed and analyzed using the synthesized cDNA. […] Table 37 calculates the mRNA amounts of p16 and p21 after aging was induced by treatment with the anticancer drug as 100% and compared them with the mRNA amounts of p16 and p21 after treatment with LX-112.

[2] = system: foreskin cells in which aging was induced by doxorubicin; assay: cell viability of senescent foreskin cells with caspase inhibitor QVD-Oph (Example 10, Table 61); type: cell-based, human; conditions: LX-112 10 μM; for Survial (%): doxorubicin-senescent foreskin cells, 3 days
p16, MMP3, IL6 = p16, MMP3, IL6 mRNA qRT-PCR in groin fat of obese mice given senescent cells killed by test compounds (Example 16, Table 72); type: in vivo, C57BL6J mice; conditions: obese mice administered senescent cells whose death was induced by the test compound
Procedure, shortened: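 Mouse groin-fat preadipocytes made senescent with 250 nM doxorubicin for 24 h plus 21 days, killed by test compounds, and given subcutaneously (5×10^5 cells) to female C57BL6J mice. Senescent preadipocytes then given i.p., followed by 8-week high-fat diet. Groin-fat p16, MMP3 and IL6 mRNA measured by qRT-PCR as % of mice without killed-cell administration.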

O=c1c2ccccc2[se]n1CCn1[se]c2ccccc2c1=O [LX-112, 1,2-[bis(1,2-benzisoselenazolone-3(2H)-ketone)]ethane]
Collagen mRNA (Fold) ([1]; COL1A1, skin, LX-112, aged untreated = 1): 2.3 (±0.4) Fold | Dermal Thickness (μm) ([1]; LX-112 70 mg/kg oral daily 21 days): 265 (±17.2) μm | p16 mRNA (%) Kidney (p16, p21): 75 (±14.81) % | p16 mRNA (%) Liver (p16, p21): 70 (±8.3) % | p16 mRNA (%) eWAT (p16, p21): 72 (±18.75) % | p21 mRNA (%) Kidney (p16, p21): 83.8 (±9.5)^ % | p21 mRNA (%) Liver (p16, p21): 78 (±11.5) % | p21 mRNA (%) eWAT (p16, p21): 68.4 (±15.1)^ % | Survial (%) ([2]; QVD-Oph 20 μM applied 4 hours before): 53.9 (±2.2) % | Survial (%) ([2]; without QVD-Oph): 39.5 (±3.7) % | inhibition of the death of senescent cells by the caspase inhibitor ([2]; QVD-Oph 20 μM, ABT-263 1 μM): did not effectively inhibit

COC(=O)c1ccc([C@H]2c3[nH]c4ccccc4c3C[C@H](C(=O)OC)N2C(=O)CCl)cc1 [LX-405]
IL6 mRNA (%) (p16, MMP3, IL6): 68.7 (±9.1) % | MMP3 mRNA (%) (p16, MMP3, IL6): 80.5 (±2.8) % | p16 mRNA (%) (p16, MMP3, IL6): 72.4 (±3.9) %
